This test has as its system mice. The test can be described thus: Passive avoidance test (scopolamine-induced memory decline). The conditions noted are these: scopolamine 1 mg/kg; for Retention time: measured up to 300 seconds. It is filed as in vivo, mouse. As to the method:
Passive avoidance test was performed to identify the memory improvement effect of the above 8 oleanolic acid saponin or hederagenin saponin substances in the body. Also, oleanolic acid and hederagenin, aglycons of the saponin compounds, were included in the test. A shuttle box measuring 50 cm×15 cm×40 cm was used. The box was divided into two compartments by a guillotine door. One compartment was brightly illuminated and the other was covered by black cloth. A mouse was placed in the illuminated compartment. Then, when the guillotine door was open, the mouse moved into the dark compartment within 20 seconds because it prefers darkness. The guillotine door was closed automatically as soon as the mouse entered the dark compartment. In this way, the latency time, or the time that elapsed until a mouse left the illuminated compartment and entered the dark compartment, was determined. On the first day, this training trial was performed until all the mice entered the dark compartment within 20 seconds. On the following day, the trained mice were placed in the illuminated compartment, one at a time, and were allowed to move into the dark compartment. When the mice entered the dark compartment, a foot-shock (0.8 mA, 3 seconds) was delivered through the electronic grid equipped on the floor of the dark compartment. 24 hours after this acquisition trial, the mice were placed in the illuminated compartment and were allowed to move into the dark compartment. Then, normal mice hesitated to move into the dark compartment remembering the shock of the day before. The time elapsed until the mice entered the dark compartment was measured up to 300 seconds. Retention time was measured to evaluate the memory improvement effect. Neither scopolamine nor the drug was administered to the control group. Scopolamine (1 mg/kg), which is known to decline memory function by inhibiting the transfer of neurotransmitters, was administered. An hour later, saponin (30 mg/kg) and aglycon (30 mg/kg), […] (donepezil, 1 mg/kg, positive control) and water (negative control) were administered.

The mark [1] stands for this setting: saponin or aglycon 30 mg/kg administered once orally 1 hour later, 24 hours after acquisition trial.
Setting [2] is: saponin or aglycon 30 mg/kg 1 hour later.

For “3-O-β-D-Xylopyranosyl(1→2)-β-D-galactopyranosyl(1→3)-β-D-glucolopyranosyloleanolic acid [Elatoside A]”, the “Retention time” value under setting [1] was found to be 166.0 ± 24.8 s.

Take “3-O-β-D-Xylopyranosyl(1→2)-β-D-galactopyranosyl(1→3)-β-D-glucolopyranosyloleanolic acid-28-O-β-D-glucopyranosyl ester [Elatoside C]”: the “Retention time” value under setting [1] amounted to 160.1 ± 15.6 s.

As to `COc1cc2c(cc1OC)C(=O)C(CC1CCN(Cc3ccccc3)CC1)C2` (centres unmarked) [Aricept, donepezil, reference compound], the “times longer retention time than the negative control group (water)” value (Aricept 1 mg/kg orally 1 hour later) worked out at 1.6 times. Moreover, where the note is “Aricept (donepezil) 1 mg/kg orally 1 hour later, positive control”, the “Retention time” value amounted to 98.5 ± 10.6 s.

In the case of `C[C@@H]1O[C@@H](O[C@H]2[C@H](O[C@H]3CC[C@]4(C)[C@H]5CC=C6[C@@H]7CC(C)(C)CC[C@]7(C(=O)O)CC[C@@]6(C)[C@]5(C)CC[C@H]4C3(C)C)OC[C@H](O)[C@@H]2O)[C@H](O)[C@H](O)[C@H]1O` [Eleutheroside K, 3-O-α-L-Rhamnopyranosyl(1→2)-α-L-arabinopyranosyloleanolic acid], the “Retention time” value under setting [1] was 182.6 ± 15.9 s.

Turning to `CC1OC(OC2C(CO)OC(OCC3OC(OC(=O)C45CCC(C)(C)CC4C4=CCC6C7(C)CCC(OC8OCC(OC9OC(CO)C(O)C(O)C9OC9OC(C)C(O)C(O)C9O)C(O)C8O)C(C)(C)C7CCC6(C)C4(C)CC5)C(O)C(O)C3O)C(O)C2O)C(O)C(O)C1O` [Hederacolchiside E, 3-O-α-L-Rhamnopyranosyl(1→2)-β-D-glucopyranosyl(1→4)-α-L-arabinopyranosyloleanolic acid-28-O-α-L-rhamnopyranosyl(1→4)-β-D-glucopyranosyl(1→6)-β-D-glucopyranosyl ester], under setting [1], the “Retention time” value was found to be 155.7 ± 31.2 s.

In the case of `CC1(C)CC[C@]2(C(=O)O)CC[C@]3(C)C(=CC[C@@H]4[C@@]5(C)CC[C@H](O)[C@@](C)(CO)[C@@H]5CC[C@]43C)[C@@H]2C1` [Hederagenin, hederagenin, reference compound], the “times longer retention time than the negative control group (water)” value under setting [2] turned out to be 2.3 times. Besides, the “Retention time” value under setting [1] stood at 142.8 ± 32.6 s.

`C[C@@H]1O[C@@H](O[C@H]2[C@H](O[C@H]3CC[C@]4(C)[C@H]5CC=C6[C@@H]7CC(C)(C)CC[C@]7(C(=O)O[C@@H]7O[C@H](CO[C@@H]8O[C@H](CO)[C@@H](O[C@@H]9O[C@@H](C)[C@H](O)[C@@H](O)[C@H]9O)[C@H](O)[C@H]8O)[C@@H](O)[C@H](O)[C@H]7O)CC[C@@]6(C)[C@]5(C)CC[C@H]4C3(C)C)OC[C@H](O)[C@@H]2O)[C@H](O)[C@H](O)[C@H]1O` [Hederasaponin B, 3-O-α-L-Rhamnopyranosyl(1→2)-α-L-arabinopyranosyloleanolic acid-28-O-α-L-rhamnopyranosyl(1→4)-β-D-glucopyranosyl(1→6)-β-D-glucopyranosyl ester]: under setting [1], the “Retention time” value was 172.3 ± 29.1 s.

Regarding `C[C@@H]1O[C@@H](O[C@H]2[C@H](O[C@H]3CC[C@@]4(C)[C@@H](CC[C@]5(C)[C@@H]4CC=C4[C@@H]6CC(C)(C)CC[C@]6(C(=O)O[C@@H]6O[C@H](CO[C@@H]7O[C@H](CO)[C@@H](O[C@@H]8O[C@@H](C)[C@H](O)[C@@H](O)[C@H]8O)[C@H](O)[C@H]7O)[C@@H](O)[C@H](O)[C@H]6O)CC[C@]45C)[C@]3(C)CO)OC[C@H](O)[C@@H]2O)[C@H](O)[C@H](O)[C@H]1O` [Kalopanaxsaponin B, 3-O-α-L-Rhamnopyranosyl(1→2)-α-L-arabinopyranosylhederagenin-28-O-α-L-rhamnopyranosyl(1→4)-β-D-glucopyranosyl(1→6)-β-D-glucopyranosyl ester], the “Retention time” value under setting [1] worked out at 170.5 ± 24.6 s.

Turning to `C[C@@H]1O[C@@H](O[C@H]2[C@H](OC[C@H]3O[C@@H](OC(=O)[C@]45CCC(C)(C)C[C@H]4C4=CC[C@@H]6[C@@]7(C)CC[C@H](O[C@@H]8OC[C@H](O)[C@H](O)[C@H]8O)[C@@](C)(CO)[C@@H]7CC[C@@]6(C)[C@]4(C)CC5)[C@H](O)[C@@H](O)[C@@H]3O)OC[C@@H](O)[C@@H]2O)[C@H](O)[C@H](O)[C@H]1O` [Loniceroside A, 3-O-α-L-Arabinopyranosylhederagenin-28-O-α-L-rhamnopyranosyl(1→2)-β-D-xylopyranosyl(1→6)-β-D-glucopyranosyl ester], under setting [1], the “Retention time” value came to 175.3 ± 21.1 s.

As to `CC1OC(OC2C(OCC3OC(OC(=O)C45CCC(C)(C)CC4C4=CCC6C7(C)CCC(OC8OCC(O)C(O)C8OC8OC(C)C(O)C(O)C8O)C(C)(CO)C7CCC6(C)C4(C)CC5)C(O)C(O)C3O)OCC(O)C2O)C(O)C(O)C1O` [Loniceroside B, 3-O-α-L-Rhamnopyranosyl(1→2)-α-L-arabinopyranosylhederagenin-28-O-α-L-rhamnopyranosyl(1→2)-β-D-xylopyranosyl(1→6)-β-D-glucopyranosyl ester], the “Retention time” value under setting [1] came out at 169.7 ± 25.4 s.

As for `CC1(C)CC[C@]2(C(=O)O)CC[C@]3(C)C(=CC[C@@H]4[C@@]5(C)CC[C@H](O)C(C)(C)[C@@H]5CC[C@]43C)[C@@H]2C1` [Oleanolic acid, oleanolic acid, reference compound], under setting [2], the “times longer retention time than the negative control group (water)” value is on record as 2.4 times. For the same molecule, under setting [1], the “Retention time” value stood at 149.4 ± 19.7 s.

The values are drawn from US20100190968A1, “OLEANANE TRITERPENE SAPONIN COMPOUNDS WHICH ARE EFFECTIVE ON TREATMENT OF DEMENTIA AND MILD COGNITIVE IMPAIRMENT (MCI) AND IMPROVEMENT OF COGNITIVE FUNCTION” (priority 2006, published 2010).
